Key:
[1] = Example 4: Phase I single-dose crossover bioequivalence study, 2.5 mg versus 2 mg tablets, healthy adult volunteers; assay type: in vivo, human; conditions: for AUC(0-t): AUC0-last; for Vd/F: Vz/F
Experimental: Objectives: The objective of this study was to investigate the bioequivalence of guanfacine 2.5 mg tablets versus guanfacine 2 mg tablets.
Methods: This Phase I study utilized a randomized, open-label, single-dose, three-treatment crossover design. Forty-eight (48) healthy adult volunteers completed the study. All subjects were randomly assigned to one of 6 treatment sequences and received a 2 mg and 2.5 mg tablet of guanfacine. During treatment periods 1-3, subjects received their assigned treatment (a single oral dose 2 mg or 2.5 mg after an overnight fast).

[2] = Example 3: Phase I single-dose crossover bioequivalence/dose proportionality study, 1 mg, 2 mg, 4 mg tablets, healthy adult volunteers; assay type: in vivo, human; conditions: human, in vivo; for half-life: t1/2; for Vd/F: Vz/F
Experimental: Objectives: The study was designed to assess the bioequivalence of guanfacine 2 mg and 4 mg tablets from table 2 and to investigate the dose proportionality of 1 mg, 2 mg, and 4 mg doses.
Methods: This was a Phase I, randomized, open-label, single-dose, five period, four-treatment crossover design with a separate lead-in period.
Forty-nine (49) healthy adult volunteers completed the study. During period 1, all subjects received a single 1 mg dose administered after and overnight fast. Prior to period 2, subjects were randomly assigned to one of four sequence groups, with 13 subjects per sequence. During treatment periods 2-5, subjects received their assigned treatment of 2 mg or 4 mg. All subjects were to receive two single doses of 2 mg tablets and two single doses of 4 mg tablets during the course of the study. Doses during periods 2-5 were also administered after an overnight fast.

For `N=C(N)NC(=O)Cc1c(Cl)cccc1Cl` [guanfacine], the AUC(0-t) ([1]; human, in vivo, 2.5 mg) was about 81.3 ng·h/mL, the AUC(0-inf) ([1]; human, in vivo, 2.5 mg, AUC∞) was about 85 ng·h/mL and the Cmax ([1]; human, in vivo, 2.5 mg, mean Cmax) was about 2.49 ng/mL. For the same compound, the Tmax ([1]; human, in vivo, 2.5 mg, median Tmax) was about 6 h, the CL/F ([1]; human, in vivo, po, 2 mg) was 612 ± 303 mL/min and the AUC(0-inf) ([1]; human, in vivo, po, 2 mg, AUC0-inf) was 64.2 ± 22.6 ng·h/mL. For the same compound, the AUC(0-t) ([1]; human, in vivo, po, 2 mg) was 59.8 ± 20.9 ng·h/mL, the Cmax ([1]; human, in vivo, po, 2 mg, Cmax) was 1.71 ± 0.56 ng/mL and the half-life ([1]; human, in vivo, po, 2 mg, T½) was 1060 ± 348 min. It also gave a Vd/F ([1]; human, in vivo, po, 2 mg) of 884 ± 382 L, a Tmax ([1]; human, in vivo, po, 2 mg, tmax) of 6 h and a T½ ([1]; human, in vivo, po, 2.5 mg) of 16.7 ± 7.4 h. The Vz/F ([1]; human, in vivo, po, 2.5 mg) was 809 ± 406 L, the AUC(0-inf) ([1]; human, in vivo, po, 2.5 mg, AUC0-inf) was 84.5 ± 34.2 ng·h/mL and the AUC(0-t) ([1]; human, in vivo, po, 2.5 mg) was 77.8 ± 30.4 ng·h/mL. It also gave a Cmax ([1]; human, in vivo, po, 2.5 mg, Cmax) of 2.26 ± 0.67 ng/mL, a Tmax ([1]; human, in vivo, po, 2.5 mg, Tmax) of 5 h and a half-life ([1]; human, in vivo, po, 2.5 mg, T½) of 1140 ± 396 min. For the same compound, the Vd/F ([1]; human, in vivo, po, 2.5 mg) was 915 ± 390 L, the half-life ([1]; human, in vivo, t1/2) was 1000 ± 444 min and the deaths ([1]; single 2 mg and 2.5 mg doses, healthy adults) was “no deaths”. It also gave an AUC(0-t) ([2]; 1 mg, AUC0-last) of about 29.3 ng·h/mL, an AUC(0-inf) ([2]; 1 mg, AUC∞) of about 32.4 ng·h/mL and a Cmax ([2]; 1 mg, mean Cmax) of about 0.98 ng/mL. It also gave a Tmax ([2]; 1 mg, median Tmax) of about 6 h, a half-life ([2]; 1 mg) of 1050 ± 228 min and an AUC(0-t) ([2]; 4 mg, AUC0-last) of about 120 ng·h/mL. It also gave an AUC(0-inf) ([2]; 4 mg, AUC∞) of about 125 ng·h/mL, a Cmax ([2]; 4 mg, mean Cmax) of about 3.58 ng/mL and a Tmax ([2]; 4 mg, median Tmax) of about 5 h. For the same compound, the CL/F ([2]; po, 1 mg) was 560 ± 194 mL/mm, the AUC(0-t) ([2]; po, 1 mg, AUC0-t) was 29.3 ± 8.84 ng·h/mL and the AUC(0-inf) ([2]; po, 1 mg, AUC0-∞) was 32.4 ± 8.78 ng·h/mL. The Cmax ([2]; po, 1 mg, Cmax) was 0.98 ± 0.26 ng/mL, the Vd/F ([2]; po, 1 mg) was 823 ± 249 L and the half-life ([2]; po, 1 mg) was 1050 ± 230 min. The Tmax ([2]; po, 1 mg, tmax) was 6 h, the “AUC0-∞” value ([2]; po, 2 mg) was 57.8 ± 19.1 ng·h/mL and the AUC(0-t) ([2]; po, 2 mg) was 54.0 ± 17.6 ng·h/mL. For the same compound, the Cmax ([2]; po, 2 mg) was 1.54 ± 0.53 ng/mL, the Vz/F ([2]; po, 2 mg) was 889 ± 241 L and the t1/2 ([2]; po, 2 mg) was 16.7 ± 4.12 h. It also gave an AUC(0-t) ([2]; po, 2 mg, AUC0-t) of 55 ± 18 ng·h/mL, an AUC(0-inf) ([2]; po, 2 mg, AUC0-∞) of 58.1 ± 18.8 ng·h/mL and a Cmax ([2]; po, 2 mg, Cmax) of 1.59 ± 0.49 ng/mL. It also gave a Vd/F ([2]; po, 2 mg) of 894 ± 328 L, a half-life ([2]; po, 2 mg) of 984 ± 208 min and a Tmax ([2]; po, 2 mg, tmax) of 6 h. The “AUC0-∞” value ([2]; po, 4 mg) was 123 ± 44.6 ng·h/mL, the AUC(0-t) ([2]; po, 4 mg) was 119 ± 43.4 ng·h/mL and the Cmax ([2]; po, 4 mg) was 3.59 ± 1.40 ng/mL. The Vz/F ([2]; po, 4 mg) was 866 ± 393 L, the t1/2 ([2]; po, 4 mg) was 16.2 ± 4.15 h and the AUC(0-t) ([2]; po, 4 mg, AUC0-t) was 120 ± 41.5 ng·h/mL.
